Reference: ChEMBL document CHEMBL1833800, “Synthesis, preliminary biological evaluation and molecular modeling of some new heterocyclic inhibitors of TACE” (Eur J Med Chem, 2011)

molecular target: Disintegrin and metalloproteinase domain-containing protein 17 (Homo sapiens, UniProt P78536); assay: Inhibition of TACE in human whole blood assessed as reduction of LPS-induced TNFalpha production pretreated 15 mins before LPS challenge measured 5 hrs post LPS challenge
Sequence (P78536 whole entry, the tested form may be a part): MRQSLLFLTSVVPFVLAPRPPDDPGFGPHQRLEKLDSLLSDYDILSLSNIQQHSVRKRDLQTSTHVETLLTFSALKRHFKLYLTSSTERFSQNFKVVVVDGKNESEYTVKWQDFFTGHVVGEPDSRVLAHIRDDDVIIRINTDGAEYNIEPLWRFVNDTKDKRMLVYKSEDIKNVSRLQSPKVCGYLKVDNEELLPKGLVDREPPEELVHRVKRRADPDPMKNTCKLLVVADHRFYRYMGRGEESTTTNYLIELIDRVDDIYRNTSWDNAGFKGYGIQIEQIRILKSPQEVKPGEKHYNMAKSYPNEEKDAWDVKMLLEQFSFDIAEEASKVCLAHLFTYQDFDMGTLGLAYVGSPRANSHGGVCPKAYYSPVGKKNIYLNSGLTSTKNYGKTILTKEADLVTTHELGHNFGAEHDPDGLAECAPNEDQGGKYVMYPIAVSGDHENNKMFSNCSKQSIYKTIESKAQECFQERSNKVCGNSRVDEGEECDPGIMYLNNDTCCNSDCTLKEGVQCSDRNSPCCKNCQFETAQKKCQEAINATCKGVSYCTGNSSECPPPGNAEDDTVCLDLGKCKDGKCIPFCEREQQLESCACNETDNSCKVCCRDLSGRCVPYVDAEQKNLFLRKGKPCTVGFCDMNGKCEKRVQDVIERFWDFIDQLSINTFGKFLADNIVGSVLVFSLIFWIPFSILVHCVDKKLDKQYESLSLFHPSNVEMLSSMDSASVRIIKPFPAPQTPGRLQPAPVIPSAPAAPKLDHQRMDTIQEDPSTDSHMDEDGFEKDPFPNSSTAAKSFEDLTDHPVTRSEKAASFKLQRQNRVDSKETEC

IC50 [nM]	SMILES
80	Cc1nc2ccccc2n1Cc1ccc(C(=O)N[C@@H]2CCOC[C@@H]2C(=O)NO)cn1
160	O=C(N[C@@H]1CCOC[C@@H]1C(=O)NO)c1ccc(Cn2c(C(F)(F)F)nc3ccccc32)nc1
126	Cc1nc2ccccc2n1Cc1ccc(C(=O)N[C@@H]2CCCC[C@@H]2C(=O)NO)cn1
280	O=C(N[C@@H]1CCCC[C@@H]1C(=O)NO)c1ccc(Cn2c(C(F)(F)F)nc3ccccc32)nc1
70	Cc1nc2ccccc2n1Cc1ccc(C(=O)N[C@@H]2CCC[C@@H]2C(=O)NO)cn1 (single isomer, unassigned)
74	O=C(N[C@@H]1CCC[C@@H]1C(=O)NO)c1ccc(Cn2c(C(F)(F)F)nc3ccccc32)nc1 (single isomer, unassigned)
